Test results taken from patent publication US20040121410A1, “Pain signaling molecules” (priority 2002, published 2004).
“Also recorded” adds a separate entry of the source. Where two headings read alike, the source gives them in different places. Where a SMILES comes first, the peptide text is derived from it. Where no end group is shown, it is not given here. [ ]: non-standard residue; d: D form. pGlu = O=C1CC[C@@H](C(=O)O)N1

How the values were obtained:
[1] = target: T1, MrgC11 (Mus musculus, UniProt Q8CIP3); assay: calcium-mobilization assay (FLEXstation, Fura-2/AM) in HEK-MrgC11 cells; type: cell-based; settings: for activation of MrgC11 (in words): calcium response
T1 construct: A full-length MrgC11 cDNA was cloned from the newborn DRG cDNA library; expressed in transfected cells
T1 sequence (Q8CIP3 1-322): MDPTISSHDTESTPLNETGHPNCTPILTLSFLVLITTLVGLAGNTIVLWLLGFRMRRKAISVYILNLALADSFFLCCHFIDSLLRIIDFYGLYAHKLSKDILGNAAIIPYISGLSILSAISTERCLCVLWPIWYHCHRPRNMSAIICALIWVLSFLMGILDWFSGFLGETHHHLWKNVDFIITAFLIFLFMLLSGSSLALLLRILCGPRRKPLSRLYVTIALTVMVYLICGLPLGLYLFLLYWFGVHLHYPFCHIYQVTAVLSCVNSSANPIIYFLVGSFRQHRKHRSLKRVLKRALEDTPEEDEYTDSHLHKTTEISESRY
Description: (§1) To address the questions of the ligand selectivity of the MrgC11 receptor, human embryonic kidney (HEK) 293 cells stably expressing either MrgA1 or MrgC11 were established. Neuropeptides were screened to identify ligands and agonists.
(§2) HEK293 cells were transfected with cDNA encoding the MrgAl-GFP, mNPFF2-GFP or MrgC11-GFP in pcDNA3.1/Zio(+) plasmid (Invitrogen) using the FuGENE6 transfection reagent (Roche Molecular Biomolecules). The transfected cells were selected with 400 μg/ml zeocin in DMEM supplemented with 10% FBS. Each cloned cell was further selected for membrane localization of receptor-GFP fusion protiens.
(§3) The selected cells were maintained in the same medium supplemented with 200 μg/ml zeocin. The stable cell lines were designated HEK-MrgA1, HEK-NPFF2 and HEK-MrgC11.
(§4) To identify putative ligands for MrgC11 and MrgA1 receptors, HEK-MrgC11 or HEKMrgA1 stable cell lines were screened in a calcium-mobilization assay using a fluorescence-imaging plate reader (FLEXstation). Briefly, HEK-MrgA1 or HEK-MrgC11 were plated in 96-black-well plates (Corning) and grown to confluence. After incubation with Fura-2/AM for >20 min, cells were washed and equilibrated for 20 min with HBSS (Hanks' balanced salt solution) assay buffer. The fluorescence emission caused by intracellular calcium mobilization elicited by agonists was determined by using a fluorometric imaging plate reader, Flexstation (Molecular Devices). All peptides were from Phoenix Pharmaceuticals (St. Joseph, Mo.), Bachem, American Peptide (Sunnyvale, Calif.), or Sigma.

[2] = target: T2, MrgA1 (Mus musculus, UniProt Q91WW5); assay: calcium-mobilization assay (FLEXstation, Fura-2/AM) in HEK-MrgA1 cells; type: cell-based
T2 construct: expressed in transfected cells
T2 sequence (Q91WW5 1-304): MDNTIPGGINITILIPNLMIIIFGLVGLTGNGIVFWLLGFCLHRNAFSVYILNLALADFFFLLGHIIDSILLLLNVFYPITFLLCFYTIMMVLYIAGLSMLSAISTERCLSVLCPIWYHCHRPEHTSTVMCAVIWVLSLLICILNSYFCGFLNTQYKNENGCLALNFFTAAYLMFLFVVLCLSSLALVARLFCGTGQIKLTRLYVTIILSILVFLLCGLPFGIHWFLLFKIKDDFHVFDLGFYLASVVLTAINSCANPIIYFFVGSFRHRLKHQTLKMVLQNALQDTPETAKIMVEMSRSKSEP
Description: as §1, §2, §3, §4

[3] = test system: FLRFa-induced calcium release in HEK-MrgA1; assay: FLRFa-induced [Ca2+]i response in HEK-MrgA1 with pathway inhibitors; type: cell-based, human; settings: HEK-MrgA1, 3 μM FLRFa; 10 μM U73122 or U73343 10 min pretreatment; 1 μM TG in 2 mM EGTA
Description: (§5) Cells loaded with Fura-2/AM were stimulated with each agonist and fluorescence was recorded. Graphs represent an average plot of [Ca^2+]i measurements versus time (in s) in a minimum of 8 cells from representative experiments. Individual data points represent images taken at 0.8-s intervals. […] After a 10 minute pretreatment with U73122 and U73343, each agonist was added. FIGS. 2B and E show the extracellular [Ca^2+] dependency of Ca^2+ mobilization. Cells were preincubated for 2 minutes with 2 mM EGTA (open circles) or normal medium containing 1.2 mM calcium (closed circles) and then 3 μM FLRFa or 1 μM γ2-MSH was added. […] In the presence of 2 mM EGRA, TG (1 μM final concentration) was added to deplete internal Ca^2+ stores.
(§6) The calcium source responsible for the initial peak in [Ca^2+]i was determined by depleting internal calcium stores with the application of 1 μM TG (FIGS. 2C and F).
(§7) Heterotrimeric G proteins of the Gαi and Gαq class are involved in the propagation of signals from GPCRs leading to [Ca^2+]i elevation (Guderman et al. Ann. Rev. Pharmacol. Toxicol. 36:429-459 (1996)). To determine whether Gαi/o proteins are involved in the [Ca^2+]i response, we pretreated HEK-MrgA1 or HEK-MrgC11 cells with PTX (100 ng/ml) for 16 h. […] The dose dependency in [Ca^2+]i responses for both receptors were not affected by PTX (FIGS. 4A and D).

[4] = test system: γ2-MSH-induced calcium release in HEK-MrgC11; assay: γ2-MSH-induced [Ca2+]i response in HEK-MrgC11 with pathway inhibitors; type: cell-based, human; settings: HEK-MrgC11, 1 μM γ2-MSH; 10 μM U73122 or U73343 10 min pretreatment; 1 μM TG in 2 mM EGTA
Description: as §5, §6, §7

[5] = Table 1, HEK-MrgC11 cells, FLEXstation assay, means ± SEM, triplicate, Inactive = no activation detected at concentrations up to 10 mM, read-out: EC50 MrgC11
[6] = Table 2, chirally modified FMRFa peptides, HEK-MrgA1 cells, mean ± SEM, triplicate
[7] = Table 1, HEK-MrgA1 cells, FLEXstation assay, means ± SEM, triplicate, Inactive = no activation detected at concentrations up to 10 mM
[8] = Table 2, chirally modified FMRFa peptides, HEK-MrgC11 cells, mean ± SEM, triplicate, read-out: EC50 MrgC11
[9] = Table 2, chirally modified FMRFa peptides, HEK-MrgA1 cells, mean ± SEM, triplicate, read-out: EC50 MrgA1

EC50 [1, 5]	EC50 MrgA1 [2, 7]	Compound	EC50 [1]	further results
479 ± 14 nM	–	VGRPEWWMDYQKRY-NH2 [BAM-15-amide]	–	EC50 ([2]; Table 1, HEK-MrgA1 cells, FLEXstation assay, means ± SEM, triplicate, Inactive = no activation detected at concentrations up to 10 mM, read-out: EC50 MrgA1): 8770 nM
–	–	YGGFMRF-NH2 [Met-ENK-RFamide]	133 ± 20 nM	EC50 [2]: 5250 nM
–	–	N=C(N)NCCC[C@H](N)C(=O)N[C@@H](Cc1ccccc1)C(N)=O [R-Fa]	460 ± 35 nM	EC50 MrgA1, nM [2, 6]: Inactive; EC50 MrgA1, nM ([2]; Table 2, chirally modified FMRFa peptides, HEK-MrgA1 cells, mean ± SEM, triplicate, listed as RFa): not able to activate
144 ± 18 nM	Inactive	TPDINPAWYTGRGIRPVGRF-NH2 [PrRP-20]	–	–
–	–	COc1ccc2c(c1)CC[C@@H]1[C@@H]2CC[C@]2(C)[C@@H](NCCCCCCN3C(=O)C=CC3=O)CC[C@@H]12 [U73122]	–	effect on FLRFa-induced calcium response [3]: blocked; also recorded: completely inhibited; effect on γ2-MSH-induced calcium response [4]: blocked; also recorded: completely inhibited
1240 nM	–	MPHSFANLPLRF-NH2 [RFRP-1] [listing 1 of 2 here]	–	–
–	–	YGGFMRRVGRPEWWMDYQKRYGGFL [BAM3200]	300 ± 124 nM	EC50 [2]: > 10000 nM
46 ± 12 nM	Inactive	SGQSWRPQGRF-NH2 [ACEP-1]	–	–
–	–	CC(C)C[C@H](NC(=O)[C@@H](N)Cc1ccccc1)C(=O)N[C@@H](Cc1ccccc1)C(=O)N[C@@H](CCC(N)=O)C(=O)N1CCC[C@H]1C(=O)N[C@@H](CCC(N)=O)C(=O)N[C@@H](CCCN=C(N)N)C(=O)N[C@@H](Cc1ccccc1)C(N)=O [NPFF]	54 ± 5 nM	EC50 [2]: 2150 nM
–	–	CSCC[C@H](NC(=O)[C@H](N)Cc1ccccc1)C(=O)N[C@@H](CCCNC(=N)N)C(=O)N[C@@H](Cc1ccccc1)C(N)=O [(D)F-M-R-Fa]	–	EC50 [1, 8]: 108 ± 1 nM; EC50 [2, 9]: 882 ± 55 nM
–	–	CSCC[C@H](NC(=O)[C@@H](N)Cc1ccccc1)C(=O)N[C@@H](CCCNC(=N)N)C(=O)N[C@H](Cc1ccccc1)C(N)=O [F-M-R-(D)Fa]	–	EC50 MrgC11, nM ([1]; Table 2, chirally modified FMRFa peptides, HEK-MrgC11 cells, mean ± SEM, triplicate): Inactive; EC50 [2, 9]: 643 ± 80 nM
16 ± 6 nM	Inactive	N=C(N)NCCC[C@H](NC(=O)CNC(=O)[C@@H]1CCC(=O)N1)C(=O)N[C@@H](Cc1ccccc1)C(N)=O [AnthoRF-amide] ([pGlu]GRF-NH2)	–	–
–	–	CSCC[C@@H](NC(=O)[C@@H](N)Cc1ccccc1)C(=O)N[C@@H](CCCNC(=N)N)C(=O)N[C@@H](Cc1ccccc1)C(N)=O [F-(D)M-R-Fa]	–	EC50 [1, 8]: 11 ± 4 nM; EC50 [2, 9]: 1260 nM
50 ± 4 nM	Inactive	CC(C)C[C@H](NC(=O)CNC(=O)[C@H](Cc1ccccc1)NC(=O)[C@H](CO)NC(=O)[C@H](CC(N)=O)NC(=O)[C@H](Cc1c[nH]c2ccccc12)NC(=O)[C@H](CC(N)=O)NC(=O)[C@@H](N)Cc1ccc(O)cc1)C(=O)N[C@@H](CCCNC(=N)N)C(=O)N[C@@H](Cc1ccccc1)C(N)=O [Kiss(112-121)]	–	–
102 ± 24 nM	Inactive	CC(C)C[C@H](NC(=O)CNC(=O)[C@H](Cc1ccccc1)NC(=O)[C@H](CO)NC(=O)[C@H](CC(N)=O)NC(=O)[C@H](Cc1c[nH]c2ccccc12)NC(=O)[C@H](CC(N)=O)NC(=O)[C@H](Cc1ccc(O)cc1)NC(=O)[C@H](CC(N)=O)NC(=O)[C@@H]1CCCN1C(=O)[C@H](CC(C)C)NC(=O)[C@H](CC(=O)O)NC(=O)[C@@H](N)CCCCN)C(=O)N[C@@H](CCCNC(=N)N)C(=O)N[C@@H](Cc1ccccc1)C(N)=O [Kiss(107-121)]	–	–
–	–	α-MSH	–	activation of MrgC11 (in words) ([1]; HEK-MrgC11 cells): not activated
–	–	β-MSH	–	activation of MrgC11 (in words) ([1]; HEK-MrgC11 cells): not activated
–	–	COc1ccc2c(c1)CC[C@@H]1[C@@H]2CC[C@]2(C)[C@@H](NCCCCCCN3C(=O)CCC3=O)CC[C@@H]12 [U73343]	–	effect on FLRFa-induced calcium response [3]: did not significantly affect; effect on γ2-MSH-induced calcium response [4]: did not significantly affect
–	–	CSCC[C@H](NC(=O)[C@H](Cc1ccccc1)NC(=O)CNC(=O)CNC(=O)[C@@H](N)Cc1ccc(O)cc1)C(=O)N[C@@H](CCCNC(=N)N)C(=O)N[C@@H](CCCNC(=N)N)C(=O)N[C@H](C(=O)NCC(=O)N[C@@H](CCCNC(=N)N)C(=O)N1CCC[C@H]1C(=O)N[C@@H](CCC(=O)O)C(=O)N[C@@H](Cc1c[nH]c2ccccc12)C(=O)N[C@@H](Cc1c[nH]c2ccccc12)C(=O)N[C@@H](CCSC)C(=O)N[C@@H](CC(=O)O)C(=O)N[C@@H](Cc1ccc(O)cc1)C(=O)N[C@@H](CCC(N)=O)C(=O)N[C@@H](CCCCN)C(=O)N[C@@H](CCCNC(=N)N)C(=O)N[C@@H](Cc1ccc(O)cc1)C(=O)NCC(=O)O)C(C)C [BAM-22P]	26 ± 10 nM	EC50 [2]: 2540 nM
–	Inactive	MPHSFANLPLRF-NH2 [RFRP-1] [listing 2 of 2 here]	–	–
113 ± 5 nM	Inactive	CC(C)C[C@H](NC(=O)[C@H](CC(N)=O)NC(=O)[C@@H]1CCCN1C(=O)[C@@H](N)C(C)C)C(=O)N1CCC[C@H]1C(=O)N[C@@H](CCC(N)=O)C(=O)N[C@@H](CCCNC(=N)N)C(=O)N[C@@H](Cc1ccccc1)C(N)=O [RFRP-3]	–	–
–	–	N=C(N)NCCC[C@H](N)C(=O)N[C@@H](Cc1ccccc1)C(=O)O [R-F—OH]	–	EC50 [1, 8]: 632 ± 124 nM; EC50 MrgA1, nM [2, 6]: Inactive; EC50 MrgA1, nM ([2]; Table 2, chirally modified FMRFa peptides, HEK-MrgA1 cells, mean ± SEM, triplicate, listed as RF-OH): not able to activate
17 ± 3 nM	Inactive	CSCC[C@H](NC(=O)[C@@H](NC(=O)[C@@H](N)Cc1ccc(O)cc1)C(C)C)C(=O)NCC(=O)N[C@@H](Cc1c[nH]cn1)C(=O)N[C@@H](Cc1ccccc1)C(=O)N[C@@H](CCCNC(=N)N)C(=O)N[C@@H](Cc1c[nH]c2ccccc12)C(=O)N[C@@H](CC(=O)O)C(=O)N[C@@H](CCCNC(=N)N)C(=O)N[C@@H](Cc1ccccc1)C(N)=O [γ1-MSH]	–	–

Compound	EC50 [1, 5]	EC50 MrgA1 [2, 7]	EC50 [1]	further results
YGGFMRF-OH [Met-Enk-RF]	–	Inactive	545 ± 19 nM	activation of MrgA1 (in words) ([2]; HEK-MrgA1 cells, calcium response): complete loss of activity
IRPKLKWDNQKRYG [Dynnorphin-14]	–	Inactive	22 ± 1 nM	–
AGEGLNSQFWSLAAPQRF-NH2 [NPAF]	–	Inactive	282 ± 30 nM	–
KHEYLRF-NH2 [AF-2]	–	Inactive	130 ± 24 nM	–
